Test results as given in article PMC11395566, “Novel Copper (II) Complexes with Fluorine-Containing Reduced Schiff Base Ligands Showing Marked Cytotoxicity in the HepG2 Cancer Cell Line” (International Journal of Molecular Sciences, 2024).
Several values for one entry are separate records, joined by “and”; a condition that tells them apart may be missing. Identical values can stand only once.

Assays:
Jack bean urease = Jack bean urease (Canavalia ensiformis, UniProt P07374); details: read-out: Urease inhibition IC50 ± SD, 15 min pre-incubation
Jack bean urease, sequence (P07374 whole entry, looked up): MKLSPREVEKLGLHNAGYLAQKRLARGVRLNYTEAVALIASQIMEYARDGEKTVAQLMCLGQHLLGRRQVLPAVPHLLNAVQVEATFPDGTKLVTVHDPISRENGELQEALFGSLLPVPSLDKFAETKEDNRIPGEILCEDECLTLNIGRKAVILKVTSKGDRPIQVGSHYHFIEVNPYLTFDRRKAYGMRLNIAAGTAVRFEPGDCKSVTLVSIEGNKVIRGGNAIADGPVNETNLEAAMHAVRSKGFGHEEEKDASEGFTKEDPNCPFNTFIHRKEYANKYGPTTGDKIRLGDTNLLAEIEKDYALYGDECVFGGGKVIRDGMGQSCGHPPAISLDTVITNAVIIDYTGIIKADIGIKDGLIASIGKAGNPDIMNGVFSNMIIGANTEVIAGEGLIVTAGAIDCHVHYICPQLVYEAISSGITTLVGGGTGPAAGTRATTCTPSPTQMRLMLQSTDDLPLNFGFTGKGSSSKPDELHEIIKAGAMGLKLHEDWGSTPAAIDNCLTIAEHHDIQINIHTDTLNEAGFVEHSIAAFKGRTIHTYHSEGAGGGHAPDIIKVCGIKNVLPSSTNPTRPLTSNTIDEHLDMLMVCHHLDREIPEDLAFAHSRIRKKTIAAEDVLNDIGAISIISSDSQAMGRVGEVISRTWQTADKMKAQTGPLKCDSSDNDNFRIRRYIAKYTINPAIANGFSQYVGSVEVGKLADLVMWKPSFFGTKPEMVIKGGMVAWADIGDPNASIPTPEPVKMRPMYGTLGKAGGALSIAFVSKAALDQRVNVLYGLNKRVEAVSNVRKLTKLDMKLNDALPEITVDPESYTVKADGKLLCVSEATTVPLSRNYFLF
Procedure: The urease inhibition activity of complexes was determined using the modified method reported by [48]. The assay mixture, containing 75 μL of Jack bean urease and 75 μL of the tested compounds with various concentrations dissolved in DMSO, was pre-incubated for 15 min on a 96-well assay. Afterwards, 75 μL of phosphate buffer at pH 6.8 (containing phenol red 0.18 mM) and urea (400 mM) were added and incubated at room temperature. We used microplate reader (560 nm) to measure the reaction time required for enough ammonium carbonate to form to raise the pH of the phosphate buffer from 6.8 to 7.7. The end-point of the reaction was determined by the color change of the phenol red indicator. Acetohydroxamic acid was used as a reference.

[1] = system: HepG2 hepatocellular carcinoma cells; assay: Cytotoxicity, MTT assay; assay type: cell-based, human; details: for IC50: HepG2, 24 h incubation, MTT
Procedure: The cytotoxic activity of the compounds L11–L14 and CuL11–CuL14 was evaluated in hepatocellular carcinoma HepG2 cells using the MTT assay. This colorimetric assay measures the reduction of the yellow tetrazolium salt 3-(4,5-dimethylthiazol-2-yl)-2,5-diphenyltetrazolium bromide (MTT) to purple formazan crystals by metabolically active cells.
HepG2 cells were seeded in 96-well plates at 70% confluency and pre-cultivated for 24 h before experiment in RPMI 1640 medium (Biosera, Cholet, France) with 10% fetal bovine serum, 1000 U·mL^−1 penicillin, and […] streptomycin, at 37 °C, 5% CO2 (maximum passage number 23).
HepG2 cells were incubated for 24 h with different concentrations (2–250 µM) of the tested compounds. The stock solutions of the compounds were freshly prepared in DMSO (Sigma-Aldrich, Burlington, MA, USA). Cells treated only with the RPMI 1640 medium served as a negative control, medium and DMSO served as a solvent control, and cells treated with cisplatin solution (Accord Healthcare, Harrow, UK) (2–250 µM) served as a positive control. After treatment, HepG2 cells were incubated for 4 h with MTT (Sigma Aldrich) solution (1mg/mL in PBS and complete RPMI medium). Then, the MTT solution was removed, and the formazan crystals were dissolved in DMSO for 30 min. The absorbance intensity was measured using an Epoch Spectrophotometer (BioTek, Winooski, VT, USA) at 570 nm. The experiments were performed in triplicate and cell cytotoxicity was expressed as a percentage relative to the untreated cells. Unexposed cells were used as a control and considered as having 100% cell viability. The viability of cells was calculated using the following formula:Viable cells (%) = A (treated cells)/A (control cells) × 100
The IC50 values were calculated using a four-parameter logistic regression model.

C. albicans CCM 8186 = assay: Antimicrobial activity, broth dilution method; assay type: cell-based, Candida albicans; details: 24 h, 24 °C
Procedure: (§1) The antimicrobial activities of the synthesized copper (II) complexes were evaluated against E. coli CNCTC 377/79 (Gram-negative bacterium), S. aureus CNCTC Mau 29/58 (Gram-positive bacterium), and the yeast C. albicans CCM 8186. Bacterial strains were obtained from the Czech National Collection of Type Cultures (National Institute of Public Health, Prague, Czech Republic) and the yeast was purchased from the Czech Collection of Microorganisms (Masaryk University, Brno, Czech Republic). Bacteria were grown aerobically in nutrient broth (IMUNA PHARM, Šarišské Michaľany, Slovakia) and the yeast in BD Difco Sabouraud dextrose broth (Becton, Dickinson and Company, Franklin Lakes, NJ, USA) for 18 h at 37 °C or 48 h at 24 °C, respectively. Cultures were then maintained at 4 °C on appropriate solid medium: Endo agar (Oxoid Ltd., Basingstoke, UK) for E. coli, blood agar (Biomark Laboratories, Pune, India) for S. aureus, and BD Sabouraud dextrose agar (Becton, Dickinson and Company, Franklin Lakes, NJ, USA) for C. albicans. Working cultures were prepared by the incubation of a single colony of each microorganism in NB (bacteria) or SDB (yeast) for 18 h at 37 °C or 48 h at 24 °C, respectively. A microbial suspension was prepared in saline solution (0.85% NaCl) according to McFarland standard No 0.5 using a Lambda 35 UV/VIS Spectrophotometer (PerkinElmer Inc., Shelton, CT, USA) to obtain a turbidity (concentration) of ca 1.5 × 10^8 cfu/cm^3. After the dilution in the appropriate liquid medium (NB for bacteria and SDB for yeast), a working turbidity of 1.5 × 10^7 cfu/cm^3 was prepared.
(§2) Antimicrobial activity was determined using the broth dilution method as described in [7]. Stock solutions with initial concentrations of approx. 45 mM for ligands and 27 mM for copper complexes were prepared in DMSO immediately before use. For comparison, ciprofloxacine was used as a standard compound. Working test ligands and copper complexes were prepared by the two-fold serial dilution of stock solutions in sterile doubly concentrated NB or SDB to a final volume 100 mm^3 within the 96-well microplates. Freshly prepared inoculum (5 mm^3) of the tested microorganism was added to each appropriate well (bacteria into the plates with NB, C. albicans into the plates with SDB). The final turbidity of each microorganism in each well was ca 7.5 × 10^5 cfu/cm^3. […] Each concentration was assayed in triplicate. […]

[2] = system: S. aureus CNCTC Mau 29/58; assay: Antimicrobial activity, broth dilution method; assay type: cell-based, Staphylococcus aureus; details: 24 h, 37 °C
Procedure: as §1, §2

calf thymus DNA (ct-DNA) = assay: Quenching of the fluorescence of EB-DNA adduct (ethidium bromide displacement); assay type: binding; details: for EB-DNA dynamic quenching constant Ksv / EB-DNA fluorescence quenching rate constant kq: Stern–Volmer equation; for ΔI/I0, quenching of EB-DNA fluorescence: complex 0 to 2 × 10^−4 M
Procedure: A stock solution of ct-DNA was prepared by dissolving 6 mg of ct-DNA in 5 mL of citrate buffer. The ability of the compounds to displace EB from its EB-DNA conjugate was investigated by fluorescence emission spectroscopy. The EB-DNA conjugate was prepared by adding 20 µM EB and 26 µM ct-DNA to citrate buffer. The measurements were performed by the gradual addition of the complex solution in DMSO (1 mM) to the EB-DNA conjugate solution and observing the changes in the fluorescence spectra. The spectra were recorded in the range of 550–700 nm and the excitation wavelength was set to 515 nm. The Stern–Volmer constant KSV was used to evaluate the quenching efficiency of the complexes according to the Stern–Volmer equation (Equation (1)).

[3] = system: T1, bovine serum albumin (BSA); assay: Interaction with BSA by quenching of tryptophane fluorescence; assay type: binding; details: for BSA binding constant K: Scatchard equation; for BSA fluorescence quenching rate constant kq / BSA fluorescence dynamic quenching constant Ksv: Stern–Volmer equation, 30 µM BSA in citrate buffer; for BSA fluorescence dynamic quenching constant Ksv: emission 336 nm
T1 construct: Bovine serum albumin (BSA) was chosen over human serum albumin (HSA) as the model protein target; purchased Sigma-Aldrich
Procedure: The interaction of all prepared copper complexes with BSA was studied by quenching the BSA fluorescence. BSA was dissolved in citrate buffer at the initial concentration of 30 µM. The quenching of the emission intensity of BSA tryptophane residues at 336 nm was monitored using the tested complexes (1 mM solution in DMSO) as quenchers with gradually increasing concentrations. The fluorescence emission spectra were recorded in the range of 300–420 nm. The wavelength of the excitation radiation was 280 nm. Measured data were used to study the interaction of a quencher with serum albumins using the Stern–Volmer (Equation (1)) and Scatchard (Equation (2)) equations, obtaining the Stern–Volmer constant KSV (M^−1), BSA quenching constant kq (M^−1 s^−1), binding constants KBSA (M^−1), and values of the number of binding sites n on albumin [45]. (1) I0/I=1+kqτ0 [Q]=1+KSV [Q] (2) ΔI/I0/[Q]=nKBSA−KBSAΔI/I0 where I0 = initial tryptophane fluorescence intensity of BSA, I = tryptophane fluorescence intensity of BSA after the addition of the complex, kq = quenching rate constant of BSA, KSV = dynamic quenching constant, τ0 = the average lifetime of BSA without the quencher, and [Q] = concentration of the quencher. KBSA is the bovine serum albumin binding constant and n is the number of binding sides per albumin.

E. coli CNCTC 377/79 = assay: Antimicrobial activity, broth dilution method; assay type: cell-based, Escherichia coli; details: 24 h, 37 °C
Procedure: as §1, §2

Molecule: CC(=O)NO [acetohydroxamic acid]
- IC50 (Jack bean urease): 185 µM

Molecule: N.N.[Cl][Pt][Cl] [cisplatin, reference compound]
- IC50 [1]: 337 ± 6.7 µM

Molecule: Dichloro[(±)-trans-N,N′-bis-(3,5-bis-trifluoromethylbenzyl)-cyclohexane-1,2-diamine]copper (II) [Cu-L14]
- MIC C. albicans (C. albicans CCM 8186): 1.7056 mM
- IC50 [1]: 189 ± 7.1 µM
- MIC S. aureus [2]: 0.2132 mM
- EB-DNA dynamic quenching constant Ksv (calf thymus DNA (ct-DNA)): 3.50 (±0.09) M^−1 × 10^3
- EB-DNA fluorescence quenching rate constant kq (calf thymus DNA (ct-DNA)): 1.52 (±0.04) M^−1 s^−1 × 10^11
- ΔI/I0, quenching of EB-DNA fluorescence (calf thymus DNA (ct-DNA)): 60.7%
- BSA binding constant K [3]: 5.13 (±0.50) × 10^3 M^−1
- BSA fluorescence quenching rate constant kq [3]: 6.39 (±0.19) × 10^11 M^−1s^−1
- BSA fluorescence dynamic quenching constant Ksv [3]: 6.39 (±0.19) × 10^3 M^−1
- MIC E. coli (E. coli CNCTC 377/79): 0.2132 mM

Molecule: Dichloro[(±)-trans-N,N′-bis-(3,5-difluorobenzyl)-cyclohexane-1,2-diamine]copper (II) [Cu-L13]
- MIC C. albicans (C. albicans CCM 8186): 1.6981 mM
- IC50 [1]: 64.4 ± 3.2 µM
- MIC S. aureus [2]: 0.4245 mM
- EB-DNA dynamic quenching constant Ksv (calf thymus DNA (ct-DNA)): 3.51 (±0.08) M^−1 × 10^3
- EB-DNA fluorescence quenching rate constant kq (calf thymus DNA (ct-DNA)): 1.53 (±0.03) M^−1 s^−1 × 10^11
- ΔI/I0, quenching of EB-DNA fluorescence (calf thymus DNA (ct-DNA)): 60.3%
- BSA binding constant K [3]: 4.70 (±0.32) × 10^3 M^−1
- BSA fluorescence quenching rate constant kq [3]: 8.46 × 10^11 M^−1s^−1 and 8.46 (±0.26) × 10^11 M^−1s^−1
- BSA fluorescence dynamic quenching constant Ksv [3]: 8.46 (±0.26) × 10^3 M^−1
- MIC E. coli (E. coli CNCTC 377/79): 0.2123 mM

Molecule: Dichloro[(±)-trans-N,N′-bis-(4-fluorobenzyl)-cyclohexane-1,2-diamine]copper (II) [Cu-L11]
- MIC C. albicans (C. albicans CCM 8186): 1.7381 mM
- IC50 [1]: 61.3 ± 3.4 µM
- MIC S. aureus [2]: 0.2173 mM
- EB-DNA fluorescence quenching constant (kq) (calf thymus DNA (ct-DNA)): 1.48e+11 M⁻¹ s⁻¹
- EB-DNA dynamic quenching constant Ksv (calf thymus DNA (ct-DNA)): 3.40 (±0.08) M^−1 × 10^3
- EB-DNA fluorescence quenching rate constant kq (calf thymus DNA (ct-DNA)): 1.48 (±0.04) M^−1 s^−1 × 10^11
- ΔI/I0, quenching of EB-DNA fluorescence (calf thymus DNA (ct-DNA)): 61.3%
- BSA binding constant K [3]: 5.99 (±0.44) × 10^3 M^−1
- BSA fluorescence quenching rate constant kq [3]: 3.88e+11 M⁻¹ s⁻¹
- BSA fluorescence dynamic quenching constant Ksv [3]: 3.90 (±0.08) × 10^3 M^−1
- MIC E. coli (E. coli CNCTC 377/79): 0.2173 mM

Molecule: Dichloro[(±)-trans-N,N′-bis-(4-trifluoromethylbenzyl)-cyclohexane-1,2-diamine]copper (II) [Cu-L12]
- MIC C. albicans (C. albicans CCM 8186): 0.8553 mM
- IC50 [1]: 28.7 ± 2 µM
- cell survival ([1]; HepG2, at a 50 µM concentration): 9.40%
- MIC S. aureus [2]: 0.0267 mM
- EB-DNA dynamic quenching constant Ksv (calf thymus DNA (ct-DNA)): 3.58 (±0.09) M^−1 × 10^3
- EB-DNA fluorescence quenching rate constant kq (calf thymus DNA (ct-DNA)): 1.56 (±0.04) M^−1 s^−1 × 10^11
- ΔI/I0, quenching of EB-DNA fluorescence (calf thymus DNA (ct-DNA)): 59.7%
- BSA binding constant K [3]: 8.59 (±0.64) × 10^3 M^−1
- BSA fluorescence quenching rate constant kq [3]: 5.62 (±0.20) × 10^11 M^−1s^−1
- BSA fluorescence dynamic quenching constant Ksv [3]: 5.62 (±0.20) × 10^3 M^−1
- MIC E. coli (E. coli CNCTC 377/79): 0.0267 mM
